According to patent publication US20100210654A1, “NOVEL P2Y12 RECEPTOR ANTAGONISTS” (RHEINISCHE FRIEDRICH-WILHELMS UNIVERSITÄT BONN, priority 2007, published 2010):
Where two headings read alike, the source gives them in different places.

Legend:
[1] = target: T1, human platelet P2Y12 receptors (Homo sapiens, UniProt Q9H244); experiment: Radioligand binding assay with [3H]PSB-0413 at human platelet membranes
T1 construct: Membranes were prepared from human outdated platelets from the blood bank; from tissue; host or cells: human platelets (University of Bonn blood bank), membrane preparation
T1 sequence (Q9H244 whole entry): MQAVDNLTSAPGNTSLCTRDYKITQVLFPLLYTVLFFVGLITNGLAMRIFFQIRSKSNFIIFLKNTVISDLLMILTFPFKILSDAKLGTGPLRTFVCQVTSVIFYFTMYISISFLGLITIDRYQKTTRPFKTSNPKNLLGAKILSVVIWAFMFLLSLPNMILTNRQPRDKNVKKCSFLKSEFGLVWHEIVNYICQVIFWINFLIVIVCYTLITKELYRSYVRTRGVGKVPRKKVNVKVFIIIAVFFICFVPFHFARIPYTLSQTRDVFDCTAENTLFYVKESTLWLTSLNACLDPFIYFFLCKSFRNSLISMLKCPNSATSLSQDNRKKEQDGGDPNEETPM
Protocol: Membranes were prepared from human outdated platelets from the blood bank. Outdated human platelets were obtained from the University of Bonn blood bank 4-5 days after donation. Platelet rich plasma was washed by centrifugation (10 min at 1000 g) in a buffer consisting of 50 mM Tris-HCl, pH 7.4, 5 mM EDTA and 150 mM NaCl. The supernatant was centrifuged twice (48400 g for 60 min) and the resultant platelet pellet were resuspended in 5 mM Tris-HCl (pH 7.4) containing 5 mM EDTA. The platelets were homogenized by a homogenizer. The final suspension was stored frozen as multiple aliquots at −80° C. until needed. Protein concentrations were determined by the method of Lowry using a Sigma Chemie protein assay kit.
Radioligand binding assays were performed using 5 nM [^3H]PSB-0413 and 100 μg of protein in Tris-HCl buffer 50 mM, pH 7.4, as previously described. (El-Tayeb, A., Griessmeier, K. J, Müller, C. E. Bioorg. Med. Chem. Lett. 2005, 15, 5450-52; Atzler, K. Doctoral Thesis, University of Bonn, 2006). Competition by 10 μM of test compound was initially determined. The mixture was incubated for 1 h at rt followed by filtration through GF/B filters. Nonspecific binding was determined with 1 mM ADP or 250 μM RB 2. […] At least three independent experiments were performed each in triplicate.
(§1) The data were analyzed using GraphPad Prism 4.0 (GraphPad Software, Inc., San Diego, Calif.).

hP2Y4 Receptor = hP2Y4 Receptor (Homo sapiens, UniProt P51582); experiment: Inhibition of agonist-induced calcium mobilization, recombinant receptor in human astrocytoma cells; assay type: cell-based; details: mean ± SEM
Sequence of hP2Y4 Receptor (P51582 whole entry): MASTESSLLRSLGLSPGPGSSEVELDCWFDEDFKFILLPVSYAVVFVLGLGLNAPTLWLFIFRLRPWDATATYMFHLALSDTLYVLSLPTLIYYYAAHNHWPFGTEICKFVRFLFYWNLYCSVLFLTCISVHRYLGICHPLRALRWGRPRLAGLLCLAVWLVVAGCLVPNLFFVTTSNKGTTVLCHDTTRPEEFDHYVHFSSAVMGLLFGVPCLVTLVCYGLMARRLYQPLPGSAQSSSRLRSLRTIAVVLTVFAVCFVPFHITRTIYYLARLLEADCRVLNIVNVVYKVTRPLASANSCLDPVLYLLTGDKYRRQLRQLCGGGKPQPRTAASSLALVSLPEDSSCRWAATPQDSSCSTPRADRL
Protocol: (§2) Inhibition of agonist-induced calcium mobilization was determined as previously described (Kaulich M. et al, Drug Dev. Res. 2003, 59, 72-81) using NG108-15 cells for the mouse P2Y2 receptor, or human recombinant P2Y receptors stably expressed in human astrocytoma cells (El-Tayeb, A. et al., J. Med. Chem. 2006, 49, 7076-87).
as §1

rP2Y6 Receptor = rP2Y6 Receptor (Rattus norvegicus, UniProt Q63371); experiment: as above; assay type: cell-based; details: mean ± SEM
Sequence of rP2Y6 Receptor (Q63371 whole entry): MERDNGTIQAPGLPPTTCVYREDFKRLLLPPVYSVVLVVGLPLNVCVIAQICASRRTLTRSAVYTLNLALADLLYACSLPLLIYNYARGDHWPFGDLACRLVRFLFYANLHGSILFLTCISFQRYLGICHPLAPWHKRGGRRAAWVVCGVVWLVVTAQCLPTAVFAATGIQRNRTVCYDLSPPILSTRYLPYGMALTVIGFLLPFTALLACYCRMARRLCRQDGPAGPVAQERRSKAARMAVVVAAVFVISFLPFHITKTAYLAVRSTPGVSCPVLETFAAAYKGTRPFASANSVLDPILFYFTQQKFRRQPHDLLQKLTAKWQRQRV
Protocol: as §2, §1

hP2Y2 Receptor = target: T2, hP2Y2 Receptor (Homo sapiens, UniProt P41231); experiment: as above; assay type: cell-based; details: mean ± SEM
T2 construct: expressed in transfected cells; host or cells: human astrocytoma cells
T2 sequence (P41231 whole entry): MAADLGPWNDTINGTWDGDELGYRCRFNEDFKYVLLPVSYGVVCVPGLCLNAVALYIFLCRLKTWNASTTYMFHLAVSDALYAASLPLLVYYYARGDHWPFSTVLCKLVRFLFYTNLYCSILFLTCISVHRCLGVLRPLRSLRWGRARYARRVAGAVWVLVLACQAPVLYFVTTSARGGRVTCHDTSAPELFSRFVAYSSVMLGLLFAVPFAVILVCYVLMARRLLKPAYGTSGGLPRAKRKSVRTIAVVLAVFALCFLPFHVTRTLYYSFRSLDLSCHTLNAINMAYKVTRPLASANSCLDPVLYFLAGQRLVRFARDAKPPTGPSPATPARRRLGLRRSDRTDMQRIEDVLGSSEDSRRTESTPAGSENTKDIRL
Protocol: as §2, §1

[2] = human platelet membranes, 5 nM [3H]PSB-0413, 1 h at rt, mean ± SEM, read-out: hP2Y12 Receptor Ki [μM ± SEM] vs. [3H]PSB-0413

Compound | melting point | Ki [1, 2] | other results
Nc1ccccc1Nc1cc(S(=O)(=O)[O-])c(N)c2c1C(=O)c1ccccc1C2=O.[Na+] [Example 5, Sodium 1-amino-4-(2-aminophenylamino)-9,10-dioxo-9,10-dihydroanthracene 2-sulfonate] | > 300 °C |  | 
Nc1c(S(=O)(=O)O)cc(Nc2ccccc2C(=O)O)c2c1C(=O)c1ccccc1C2=O [Entry 8] |  | 25.1 ± 7 µM | 
Cc1cc(Nc2ccc(Nc3ccccc3)c(S(=O)(=O)O)c2)c2c(c1N)C(=O)c1ccccc1C2=O [Entry 30] |  | 0.541 µM | 
COc1ccc(Nc2cc(S(=O)(=O)[O-])c(N)c3c2C(=O)c2ccccc2C3=O)cc1.[Na+] [Example 19, Sodium 1-amino-4-(4-methoxyphenylamino)-9,10-dioxo-9,10-dihydroanthracene 2-sulfonate] | > 300 °C |  | 
Nc1cc(Nc2cc(S(=O)(=O)O)c(N)c3c2C(=O)c2ccccc2C3=O)cc(C(=O)O)c1 [Entry 6] |  | 7.07 ± 1.7 µM | 
Nc1c(S(=O)(=O)[O-])cc(Nc2ccc(O)cc2)c2c1C(=O)c1ccccc1C2=O.[Na+] | > 300 °C |  | 
Nc1c(S(=O)(=O)[O-])cc(Nc2ccc(CC(=O)O)cc2)c2c1C(=O)c1ccccc1C2=O.[Na+] [Example 15, Sodium 1-amino-4-(4-carboxymethylphenylamino)-9,10-dioxo-9,10-dihydro-anthracene 2-sulfonate] | > 300 °C |  | 
Nc1c(S(=O)(=O)O)cc(Nc2ccccc2O)c2c1C(=O)c1ccccc1C2=O [Entry 11] |  | ~10 µM | 
Nc1c(S(=O)(=O)O)cc(Nc2cc(Nc3nc(Cl)nc(Cl)n3)cc(C(=O)O)c2)c2c1C(=O)c1ccccc1C2=O [Entry 34] |  | 3.76 ± 1.03 µM | 
Nc1c(S(=O)(=O)[O-])cc(Nc2ccc(C(=O)O)cc2)c2c1C(=O)c1ccccc1C2=O.[Na+] [Example 4, Sodium 1-amino-4-(4-carboxyphenylamino)-9,10-dioxo-9,10-dihydroanthracene 2-sulfonate] | > 300 °C |  | 
COc1cccc(Nc2cc(S(=O)(=O)[O-])c(N)c3c2C(=O)c2ccccc2C3=O)c1.[Na+] [Example 18, Sodium 1-amino-4-(3-methoxyphenylamino)-9,10-dioxo-9,10-dihydroanthracene 2-sulfonate] | > 300 °C |  | 
Nc1c(S(=O)(=O)[O-])cc(Nc2cccc(C(=O)O)c2)c2c1C(=O)c1ccccc1C2=O.[Na+] [Example 3, Sodium 1-amino-4-(3-carboxyphenylamino)-9,10-dioxo-9,10-dihydroanthracene 2-sulfonate] | > 300 °C |  | 
Nc1c(S(=O)(=O)O)cc(Nc2ccc(S(=O)(=O)O)cc2)c2c1C(=O)c1ccccc1C2=O [Entry 2] |  | 3.13 ± 0.39 µM | 
Nc1cc(Nc2cc(S(=O)(=O)O)c(N)c3c2C(=O)c2ccccc2C3=O)ccc1S(=O)(=O)O [Entry 4] |  | 2.1 ± 0.47 µM | 
Nc1ccc(Nc2cc(S(=O)(=O)O)c(N)c3c2C(=O)c2ccccc2C3=O)c(S(=O)(=O)O)c1 [Entry 9] |  | 19.7 ± 8.27 µM | 
Nc1c(S(=O)(=O)O)cc(Nc2ccc(O)cc2)c2c1C(=O)c1ccccc1C2=O [Entry 12] |  | ~10 µM | 
Nc1c(S(=O)(=O)[O-])cc(Nc2ccccc2O)c2c1C(=O)c1ccccc1C2=O.[Na+] | > 300 °C |  | 
Nc1cc(Nc2cc(S(=O)(=O)[O-])c(N)c3c2C(=O)c2ccccc2C3=O)cc(C(=O)O)c1.[Na+] | > 300 °C |  | 
Nc1c(S(=O)(=O)O)cc(Nc2cc(Cl)ccc2C(=O)O)c2c1C(=O)c1ccccc1C2=O [Entry 7] |  | 12.2 ± 0.3 µM | 
Nc1c(S(=O)(=O)O)cc(Nc2ccc(Oc3ccccc3)c(S(=O)(=O)O)c2)c2c1C(=O)c1ccccc1C2=O [Entry 22] |  | 0.063 ± 0.009 µM | 
Nc1c(S(=O)(=O)O)cc(Nc2ccc(Cc3ccccc3)cc2)c2c1C(=O)c1ccccc1C2=O [Entry 13] |  | 0.614 µM | 
Nc1c(S(=O)(=O)[O-])cc(Nc2ccc(F)cc2)c2c1C(=O)c1ccccc1C2=O.[Na+] [Example 20, Sodium 1-amino-4-(4-fluorophenylamino)-9,10-dioxo-9,10-dihydroanthracene 2-sulfonate] | > 300 °C |  | 
Nc1c(S(=O)(=O)[O-])cc(Nc2ccccc2S(=O)(=O)[O-])c2c1C(=O)c1ccccc1C2=O.[Na+].[Na+] [Example 26, Disodium 1-amino-4-(2-sulfophenylamino)-9,10-dioxo-9,10-dihydroanthracene 2-sulfonate] | > 300 °C |  | 
Nc1c(S(=O)(=O)O)cc(Nc2ccc(Cl)cc2C(=O)O)c2c1C(=O)c1ccccc1C2=O [Entry 10] |  | 12.3 ± 1.7 µM | 

Compound | melting point | Ki [1, 2] | other results
Nc1c(S(=O)(=O)O)cc(Nc2ccc(Nc3nc(Cl)nc(Cl)n3)c(S(=O)(=O)O)c2)c2c1C(=O)c1ccccc1C2=O [Entry 32] |  | 2.45 ± 1 µM | 
Cc1c(N)cccc1Nc1cc(S(=O)(=O)[O-])c(N)c2c1C(=O)c1ccccc1C2=O.[Na+] [Example 24, Sodium 1-amino-4-(3-amino-2-methylphenylamino)-9,10-dioxo-9,10-dihydroanthracene 2-sulfonate] | > 300 °C |  | 
Nc1cccc(Nc2cc(S(=O)(=O)[O-])c(N)c3c2C(=O)c2ccccc2C3=O)c1.[Na+] | > 300 °C |  | 
Nc1ccc(Nc2cc(S(=O)(=O)O)c(N)c3c2C(=O)c2ccccc2C3=O)cc1S(=O)(=O)O [Entry 5] |  | 2.39 ± 0.65 µM | IC50 (hP2Y4 Receptor): 11 ± 3 µM; IC50 (rP2Y6 Receptor): 24.3 ± 3.4 µM
Nc1c(S(=O)(=O)O)cc(Nc2ccc(S(=O)(=O)O)c(Nc3nc(Cl)nc(Cl)n3)c2)c2c1C(=O)c1ccccc1C2=O [Entry 31] |  |  | Ki [1]: 17.1 ± 7.8 µM
Nc1c(S(=O)(=O)O)cc(Nc2cccc([N+](=O)[O-])c2)c2c1C(=O)c1ccccc1C2=O [Entry 28] |  |  | IC50 (hP2Y2 Receptor): 7.52 ± 0.82 µM
Nc1ccc(Nc2cc(S(=O)(=O)[O-])c(N)c3c2C(=O)c2ccccc2C3=O)cc1.[Na+] | > 300 °C |  | 
Nc1c(S(=O)(=O)O)cc(Nc2cccc(Cl)c2)c2c1C(=O)c1ccccc1C2=O [Entry 27] |  | 6.76 ± 2.07 µM | IC50 (hP2Y2 Receptor): 24.5 ± 10.4 µM; IC50 (hP2Y4 Receptor): > 3 µM; IC50 (rP2Y6 Receptor): > 100 µM
Nc1c(S(=O)(=O)O)cc(Nc2ccc(Nc3nc(O)nc(O)n3)cc2S(=O)(=O)O)c2c1C(=O)c1ccccc1C2=O [Entry 39] |  | > 10 µM | 
Cc1cc(C)cc(Nc2cc(S(=O)(=O)[O-])c(N)c3c2C(=O)c2ccccc2C3=O)c1.[Na+] [Example 22, Sodium 1-amino-4-(3,5-dimethylphenylamino)-9,10-dioxo-9,10-dihydroanthracene 2-sulfonate] | > 300 °C |  | 
Nc1c(S(=O)(=O)[O-])cc(Nc2cccc(Br)c2)c2c1C(=O)c1ccccc1C2=O.[Na+] [Example 21, Sodium 1-amino-4-(3-bromophenylamino)-9,10-dioxo-9,10-dihydroanthracene 2-sulfonate] | > 300 °C |  | 
Nc1c(S(=O)(=O)O)cc(Nc2ccc(Nc3nc(Cl)nc(Cl)n3)cc2)c2c1C(=O)c1ccccc1C2=O [Entry 35] |  | 1.9 ± 0.24 µM | 
Nc1c(S(=O)(=O)O)cc(Nc2ccc(Nc3ncccn3)cc2)c2c1C(=O)c1ccccc1C2=O [Entry 36] |  | ~10 µM | 
Nc1c(S(=O)(=O)[O-])cc(Nc2cc(Cl)ccc2C(=O)O)c2c1C(=O)c1ccccc1C2=O.[Na+] | > 300 °C |  | 
Nc1c(S(=O)(=O)O)cc(Nc2ccc(Sc3ccccc3)cc2)c2c1C(=O)c1ccccc1C2=O [Entry 19] |  | 0.884 ± 0.525 µM | 
Nc1c(S(=O)(=O)O)cc(Nc2ccc(Nc3ccccc3)c(S(=O)(=O)O)c2)c2c1C(=O)c1ccccc1C2=O [Entry 24] |  | 0.0249 ± 0.0032 µM | 
Nc1c(S(=O)(=O)[O-])cc(Nc2ccc(S(=O)(=O)[O-])cc2)c2c1C(=O)c1ccccc1C2=O.[Na+].[Na+] | > 300 °C |  | 
Nc1cccc(Nc2cc(S(=O)(=O)O)c(N)c3c2C(=O)c2ccccc2C3=O)c1 [Entry 14] |  | > 10 µM | 
Nc1c(S(=O)(=O)[O-])cc(Nc2ccc(O)c(C(=O)O)c2)c2c1C(=O)c1ccccc1C2=O.[Na+] [Example 25, Sodium 1-amino-4-(3-carboxy-4-hydroxyphenylamino)-9,10-dioxo-9,10-dihydroanthracene 2-sulfonate] | > 300 °C |  | 
COc1ccc(CCNc2cc(S(=O)(=O)O)c(N)c3c2C(=O)c2ccccc2C3=O)cc1OC [Entry 21] |  |  | IC50 (hP2Y4 Receptor): > 30 µM; IC50 (rP2Y6 Receptor): > 100 µM
Nc1c(S(=O)(=O)O)cc(Nc2ccc(Nc3nc(O)nc(O)n3)c(S(=O)(=O)O)c2)c2c1C(=O)c1ccccc1C2=O [Entry 38] |  | ~10 µM | 
Nc1c(S(=O)(=O)[O-])cc(Nc2ccccc2C(=O)O)c2c1C(=O)c1ccccc1C2=O.[Na+] | > 300 °C |  | 
Nc1c(S(=O)(=O)O)cc(Nc2cccc(S(=O)(=O)O)c2)c2c1C(=O)c1ccccc1C2=O [Entry 1] |  | 3.81 ± 1.08 µM | IC50 (hP2Y4 Receptor): 18.5 ± 2.5 µM; IC50 (rP2Y6 Receptor): ~100 µM
